Measured values as given in PMC5218480 (PLoS ONE, 2017).

Tested on: MV-4-11 cells
Assay: Gene expression microarray analysis (Affymetrix PrimeView) and GSEA
Assay type: cell-based, human
Design: RFU PODN (11730768_x_at) / Fold change /veh PODN (11730768_x_at) / RFU LINC00158 (11744669_a_at) / Fold change /veh LINC00158 (11744669_a_at) / RFU DUSP10 (11751237_a_at) / Fold change /veh DUSP10 (11751237_a_at) / RFU ID3 (11757404_x_at) / Fold change /veh ID3 (11757404_x_at) / RFU PLEKHG5 (11737974_s_at) / Fold change /veh PLEKHG5 (11737974_s_at) / RFU LRRC4B (11730491_at) / Fold change /veh LRRC4B (11730491_at) / RFU GIMAP4 (11747438_a_at) / Fold change /veh GIMAP4 (11747438_a_at) / RFU KRT8 (11758183_x_at) / Fold change /veh KRT8 (11758183_x_at) / RFU CNN1 (11734310_a_at) / Fold change /veh CNN1 (11734310_a_at) / RFU VPS37D (11726825_at) / Fold change /veh VPS37D (11726825_at) / RFU C10orf10 (11716522_x_at) / Fold change /veh C10orf10 (11716522_x_at) / RFU KIR2DL2 /// KIR2DL4 /// KIR2DL5A /// KIR2DL5B /// KIR2DS1 /// KIR2DS2 /// KIR2DS3 /// KIR2DS4 /// KIR3DL3 /// KIR3DL3 /// KIR3DS1 (11738374_at) / Fold change /veh KIR2DL2 /// KIR2DL4 /// KIR2DL5A /// KIR2DL5B /// KIR2DS1 /// KIR2DS2 /// KIR2DS3 /// KIR2DS4 /// KIR3DL3 /// KIR3DL3 /// KIR3DS1 (11738374_at) / RFU C1QL1 (11718748_at) / Fold change /veh C1QL1 (11718748_at) / RFU TMPRSS4 (11747572_a_at) / Fold change /veh TMPRSS4 (11747572_a_at) / RFU HAMP (11756126_x_at) / Fold change /veh HAMP (11756126_x_at) / RFU RNFT2 (11725882_a_at) / Fold change /veh RNFT2 (11725882_a_at) / RFU NR4A2 (11747474_a_at) / Fold change /veh NR4A2 (11747474_a_at) / RFU ABCC12 (11746883_a_at) / Fold change /veh ABCC12 (11746883_a_at) / RFU TMEM136 (11760407_x_at) / Fold change /veh TMEM136 (11760407_x_at) / RFU CLDN22 /// WWC2 (11732394_at) / Fold change /veh CLDN22 /// WWC2 (11732394_at) / RFU HLA-DPB1 (11760878_x_at) / Fold change /veh HLA-DPB1 (11760878_x_at) / RFU SPINT1 (11716480_a_at) / Fold change /veh SPINT1 (11716480_a_at) / RFU GAP43 (11754022_s_at) / Fold change /veh GAP43 (11754022_s_at) / RFU A4GNT (11735810_at) / Fold change /veh A4GNT (11735810_at) / RFU PRB3 (11715151_x_at) / Fold change /veh PRB3 (11715151_x_at) / RFU TUBB4B (11761932_at) / Fold change /veh TUBB4B (11761932_at) / RFU CAPN14 (11732068_a_at) / Fold change /veh CAPN14 (11732068_a_at) / RFU TMCC2 (11721928_a_at) / Fold change /veh TMCC2 (11721928_a_at) / RFU IRGQ (11745062_a_at) / Fold change /veh IRGQ (11745062_a_at) / RFU FAM174B (11720279_a_at) / Fold change /veh FAM174B (11720279_a_at) / RFU TMPRSS4 (11748680_a_at) / Fold change /veh TMPRSS4 (11748680_a_at) / RFU FAM212B (11763350_a_at) / Fold change /veh FAM212B (11763350_a_at) / RFU PLEKHG5 (11743358_a_at) / Fold change /veh PLEKHG5 (11743358_a_at) / RFU ZSCAN30 (11745921_a_at) / Fold change /veh ZSCAN30 (11745921_a_at) / RFU CMKLR1 (11741424_a_at) / Fold change /veh CMKLR1 (11741424_a_at) / RFU LOC101060620 /// MAPK8IP1 (11723275_at) / Fold change /veh LOC101060620 /// MAPK8IP1 (11723275_at) / RFU SPTSSB (11747773_x_at) / Fold change /veh SPTSSB (11747773_x_at) / RFU PRSS12 (11739890_at) / Fold change /veh PRSS12 (11739890_at) / RFU BIN1 (11741810_x_at) / Fold change /veh BIN1 (11741810_x_at) / RFU WNT11 (11732464_a_at) / Fold change /veh WNT11 (11732464_a_at) / RFU C10orf10 (11716521_a_at) / Fold change /veh C10orf10 (11716521_a_at) / RFU C5orf56 (11738089_at) / Fold change /veh C5orf56 (11738089_at) / RFU CYB561 (11721691_x_at) / Fold change /veh CYB561 (11721691_x_at) / RFU ANKRD19P (11752326_a_at) / Fold change /veh ANKRD19P (11752326_a_at) / RFU OR2T12 /// OR2T33 /// OR2T8 (11738714_s_at) / Fold change /veh OR2T12 /// OR2T33 /// OR2T8 (11738714_s_at) / RFU VCAN (11748164_a_at) / Fold change /veh VCAN (11748164_a_at) / RFU JSRP1 (11732532_at) / Fold change /veh JSRP1 (11732532_at) / RFU KRTAP10-11 (11738290_x_at) / Fold change /veh KRTAP10-11 (11738290_x_at) / RFU MYO3A (11730013_a_at) / Fold change /veh MYO3A (11730013_a_at) / RFU EBF3 (11725865_a_at) / Fold change /veh EBF3 (11725865_a_at) / RFU CAMK2N1 (11719241_x_at) / Fold change /veh CAMK2N1 (11719241_x_at) / RFU C5orf56 (11738088_a_at) / Fold change /veh C5orf56 (11738088_a_at) / RFU OLFML3 (11715873_a_at) / Fold change /veh OLFML3 (11715873_a_at) / RFU LOC100653217 /// NTM (11731650_a_at) / Fold change /veh LOC100653217 /// NTM (11731650_a_at) / RFU MAPK11 (11762145_a_at) / Fold change /veh MAPK11 (11762145_a_at) / RFU FIZ1 (11724087_x_at) / Fold change /veh FIZ1 (11724087_x_at) / RFU OASL (11726364_x_at) / Fold change /veh OASL (11726364_x_at) / RFU SOX15 (11748057_x_at) / Fold change /veh SOX15 (11748057_x_at) / RFU CD79A (11719716_a_at) / Fold change /veh CD79A (11719716_a_at) / RFU HIST1H1D (11736915_at) / Fold change /veh HIST1H1D (11736915_at) / RFU CASKIN2 (11723855_a_at) / Fold change /veh CASKIN2 (11723855_a_at) / RFU LOC730098 (11760151_x_at) / Fold change /veh LOC730098 (11760151_x_at) / RFU OR4N2 (11742367_at) / Fold change /veh OR4N2 (11742367_at) / RFU PRRT2 (11749266_a_at) / Fold change /veh PRRT2 (11749266_a_at) / RFU SNX32 (11753110_a_at) / Fold change /veh SNX32 (11753110_a_at) / RFU CDHR5 (11726645_a_at) / Fold change /veh CDHR5 (11726645_a_at) / RFU RCAN1 (11760418_a_at) / Fold change /veh RCAN1 (11760418_a_at) / RFU FAM167A (11723789_a_at) / Fold change /veh FAM167A (11723789_a_at) / RFU FAM26E (11764081_at) / Fold change /veh FAM26E (11764081_at) / RFU ISYNA1 (11749810_s_at) / Fold change /veh ISYNA1 (11749810_s_at) / RFU ACY1 (11761880_at) / Fold change /veh ACY1 (11761880_at) / RFU 11764098_at / Fold change /veh 11764098_at / RFU SAMD14 (11745864_x_at) / Fold change /veh SAMD14 (11745864_x_at) / RFU NPB (11741838_a_at) / Fold change /veh NPB (11741838_a_at) / RFU TMPRSS6 (11731388_a_at) / Fold change /veh TMPRSS6 (11731388_a_at) / RFU KRTAP10-2 (11738614_at) / Fold change /veh KRTAP10-2 (11738614_at) / RFU ARHGAP8 /// PRR5-ARHGAP8 (11727945_x_at) / Fold change /veh ARHGAP8 /// PRR5-ARHGAP8 (11727945_x_at) / RFU KRTAP5-7 /// NADSYN1 (11734609_at) / Fold change /veh KRTAP5-7 /// NADSYN1 (11734609_at) / RFU RASL12 (11751679_a_at) / Fold change /veh RASL12 (11751679_a_at) / RFU CDKN2B (11736163_a_at) / Fold change /veh CDKN2B (11736163_a_at) / RFU PRF1 (11729649_at) / Fold change /veh PRF1 (11729649_at) / RFU, ZNF638 /// ZNF638-IT1 / Fold change vs veh, ZNF638 /// ZNF638-IT1 / RFU, PANK3 / Fold change vs veh, PANK3 / RFU, SH3YL1 / Fold change vs veh, SH3YL1 / RFU, ZEB2 / Fold change vs veh, ZEB2 / RFU, NRIP1 / Fold change vs veh, NRIP1 / RFU, PTTG1IP / Fold change vs veh, PTTG1IP / RFU, CAPN2 / Fold change vs veh, CAPN2 / RFU, MED14 / Fold change vs veh, MED14 / RFU, SNORA58 / Fold change vs veh, SNORA58 / RFU, C1orf63 / Fold change vs veh, C1orf63 / RFU, LRRFIP1 / Fold change vs veh, LRRFIP1 / RFU, NDUFAF7 / Fold change vs veh, NDUFAF7 / RFU, SLC12A2 / Fold change vs veh, SLC12A2 / RFU, IBTK / Fold change vs veh, IBTK / RFU, ESF1 / Fold change vs veh, ESF1 / Fold change vs veh, TMEM50B / RFU, TAOK1 / Fold change vs veh, TAOK1 / RFU, ACBD3 / Fold change vs veh, ACBD3 / RFU, TMA16 / Fold change vs veh, TMA16 / RFU, RWDD3 / Fold change vs veh, RWDD3 / RFU, BCAT1 / Fold change vs veh, BCAT1 / RFU, EDEM3 / Fold change vs veh, EDEM3 / RFU, TMEM33 / Fold change vs veh, TMEM33 / RFU, WDR75 / Fold change vs veh, WDR75 / RFU, AHCTF1 / Fold change vs veh, AHCTF1 / RFU, TFRC / Fold change vs veh, TFRC / RFU, ZDHHC17 / Fold change vs veh, ZDHHC17 / RFU, NOM1 / Fold change vs veh, NOM1 / RFU, ARL8B / Fold change vs veh, ARL8B / RFU, ZBTB11 / Fold change vs veh, ZBTB11 / RFU, TAMM41 / Fold change vs veh, TAMM41 / RFU, KIAA1704 /// LOC100996395 / Fold change vs veh, KIAA1704 /// LOC100996395 / RFU, ING1 / Fold change vs veh, ING1 / RFU, TRMT61B / Fold change vs veh, TRMT61B / RFU, FUBP3 / Fold change vs veh, FUBP3 / RFU, TP53 / Fold change vs veh, TP53 / RFU, TNKS2 / Fold change vs veh, TNKS2 / RFU, ZFP14 / Fold change vs veh, ZFP14 / RFU, ACTR2 / Fold change vs veh, ACTR2 / RFU, PPP3R1 / Fold change vs veh, PPP3R1 / RFU, PIK3R1 / Fold change vs veh, PIK3R1 / RFU, HNRNPA1 / Fold change vs veh, HNRNPA1 / RFU, RNF170 / Fold change vs veh, RNF170 / RFU, ZNF28 / Fold change vs veh, ZNF28 / RFU, RNGTT / Fold change vs veh, RNGTT / RFU, OGT / Fold change vs veh, OGT / RFU, BRD1 / Fold change vs veh, BRD1 / RFU, MARS / Fold change vs veh, MARS / RFU, ZNF655 / Fold change vs veh, ZNF655 / RFU, FAHD1 / Fold change vs veh, FAHD1 / RFU, BDP1 / Fold change vs veh, BDP1 / RFU, LRRCC1 / Fold change vs veh, LRRCC1 / RFU, ARID1A / Fold change vs veh, ARID1A / RFU, ZNF146 / Fold change vs veh, ZNF146 / RFU, ZNF330 / Fold change vs veh, ZNF330 / RFU, GPN3 / Fold change vs veh, GPN3 / RFU, C9orf123 / Fold change vs veh, C9orf123 / RFU, N4BP2L2 / Fold change vs veh, N4BP2L2 / RFU, ARFIP1 / Fold change vs veh, ARFIP1 / RFU, FAM179B / Fold change vs veh, FAM179B / RFU, BCL10 / Fold change vs veh, BCL10 / RFU, UHRF1BP1L / Fold change vs veh, UHRF1BP1L / RFU, BET1 / Fold change vs veh, BET1 / RFU, CNOT2 / Fold change vs veh, CNOT2 / RFU, ZNF268 / Fold change vs veh, ZNF268 / Fold change vs veh, ZNF507 / RFU, DGCR2 / Fold change vs veh, DGCR2 / RFU, WDSUB1 / Fold change vs veh, WDSUB1 / Fold change vs veh, HSP90B1 /// MIR3652 / RFU, ADSS / Fold change vs veh, ADSS / RFU, GK / Fold change vs veh, GK / RFU, ZNF148 / Fold change vs veh, ZNF148 / RFU, TAF9 / Fold change vs veh, TAF9 / RFU, SLC1A5 / Fold change vs veh, SLC1A5 / RFU, SLMO2 / Fold change vs veh, SLMO2 / RFU, ABCC4 / Fold change vs veh, ABCC4 / RFU, LOC101060439 /// RAP1B / Fold change vs veh, LOC101060439 /// RAP1B / RFU, RFX7 / Fold change vs veh, RFX7 / RFU, GTPBP10 / Fold change vs veh, GTPBP10 / RFU, CNEP1R1 / Fold change vs veh, CNEP1R1 / RFU, BIVM-ERCC5 /// ERCC5 / Fold change vs veh, BIVM-ERCC5 /// ERCC5 / RFU, ILF3 / Fold change vs veh, ILF3 / RFU 11762660_at / Fold change /veh 11762660_at / RFU VCAN (11757783_s_at) / Fold change /veh VCAN (11757783_s_at) / RFU DDX43 (11728927_at) / Fold change /veh DDX43 (11728927_at) / RFU KRT8 (11758188_x_at) / Fold change /veh KRT8 (11758188_x_at) / RFU NKD1 (11759106_at) / Fold change /veh NKD1 (11759106_at) / RFU SRD5A1 (11742802_a_at) / Fold change /veh SRD5A1 (11742802_a_at) / RFU TPSAB1 /// TPSB2 (11721975_s_at) / Fold change /veh TPSAB1 /// TPSB2 (11721975_s_at) / RFU GSTM3 (11746129_a_at) / Fold change /veh GSTM3 (11746129_a_at) / RFU IL23R (11737362_x_at) / Fold change /veh IL23R (11737362_x_at) / RFU TMEM51 (11727254_a_at) / Fold change /veh TMEM51 (11727254_a_at) / RFU PIWIL2 (11732686_x_at) / Fold change /veh PIWIL2 (11732686_x_at) / RFU ORM1 (11744905_x_at) / Fold change /veh ORM1 (11744905_x_at) / RFU CCDC152 (11743942_at) / Fold change /veh CCDC152 (11743942_at) / RFU ECM1 (11717891_a_at) / Fold change /veh ECM1 (11717891_a_at) / RFU IL23R (11748794_a_at) / Fold change /veh IL23R (11748794_a_at) / RFU TNFAIP8L3 (11732012_x_at) / Fold change /veh TNFAIP8L3 (11732012_x_at) / RFU MBOAT4 (11741988_at) / Fold change /veh MBOAT4 (11741988_at) / RFU 11764193_at / Fold change /veh 11764193_at / RFU TMEM53 (11763286_at) / Fold change /veh TMEM53 (11763286_at) / RFU MAGEB2 (11727129_at) / Fold change /veh MAGEB2 (11727129_at) / RFU TMEM200A (11744735_a_at) / Fold change /veh TMEM200A (11744735_a_at) / RFU CCDC152 (11751479_a_at) / Fold change /veh CCDC152 (11751479_a_at) / RFU FAM211A (11726209_a_at) / Fold change /veh FAM211A (11726209_a_at) / RFU RGS16 (11746705_a_at) / Fold change /veh RGS16 (11746705_a_at) / RFU VCAN (11755009_s_at) / Fold change /veh VCAN (11755009_s_at) / RFU RHOB (11743442_s_at) / Fold change /veh RHOB (11743442_s_at) / RFU RGS16 (11720943_a_at) / Fold change /veh RGS16 (11720943_a_at) / RFU RGS16 (11720944_at) / Fold change /veh RGS16 (11720944_at) / RFU, VPS4B / Fold change vs veh, VPS4B / RFU, CREB1 / Fold change vs veh, CREB1 / RFU, DNAJC13 / Fold change vs veh, DNAJC13 / RFU, GNAQ / Fold change vs veh, GNAQ / RFU, CDK5R1 / Fold change vs veh, CDK5R1 / RFU, ZRANB3 / Fold change vs veh, ZRANB3 / RFU, CUL4A / Fold change vs veh, CUL4A / RFU, CCNY / Fold change vs veh, CCNY / RFU, UFL1 / Fold change vs veh, UFL1 / RFU, COG3 / Fold change vs veh, COG3 / RFU, DIAPH2 / Fold change vs veh, DIAPH2 / RFU, SKA2 / Fold change vs veh, SKA2 / RFU, AFF3 / Fold change vs veh, AFF3 / RFU, LMF1 / Fold change vs veh, LMF1 / RFU, IPO11 / Fold change vs veh, IPO11 / RFU, DFFB / Fold change vs veh, DFFB / RFU, FOXP1 / Fold change vs veh, FOXP1 / RFU, CARD8 / Fold change vs veh, CARD8 / RFU, STRN3 / Fold change vs veh, STRN3 / RFU, ADK / Fold change vs veh, ADK / RFU, RASSF2 / Fold change vs veh, RASSF2 / RFU, WIPF1 / Fold change vs veh, WIPF1 / RFU, LARP1B / Fold change vs veh, LARP1B / RFU, RASA1 / Fold change vs veh, RASA1 / RFU, RB1 / Fold change vs veh, RB1 / RFU, PPFIA1 / Fold change vs veh, PPFIA1 / RFU, MAT2A / Fold change vs veh, MAT2A / RFU, CCT5 / Fold change vs veh, CCT5 / RFU, WDR92 / Fold change vs veh, WDR92 / RFU, CUX1 / Fold change vs veh, CUX1 / RFU, TTC7A / Fold change vs veh, TTC7A / RFU, TMEM135 / Fold change vs veh, TMEM135 / RFU, DEPTOR / Fold change vs veh, DEPTOR / RFU, CPM / Fold change vs veh, CPM / RFU, DNAJB6 / Fold change vs veh, DNAJB6 / RFU, CACNA2D3 / Fold change vs veh, CACNA2D3 / RFU, DTX4 / Fold change vs veh, DTX4 / RFU, TFCP2 / Fold change vs veh, TFCP2 / RFU, GMCL1 /// GMCL1P1 / Fold change vs veh, GMCL1 /// GMCL1P1 / RFU, AEBP2 / Fold change vs veh, AEBP2 / RFU, SNHG1 /// SNORD22 /// SNORD25 /// SNORD26 /// SNORD27 /// SNORD28 /// SNORD29 /// SNORD31 / Fold change vs veh, SNHG1 /// SNORD22 /// SNORD25 /// SNORD26 /// SNORD27 /// SNORD28 /// SNORD29 /// SNORD31 / Fold change (Aza/veh), C12orf56 (ProbeSet 11735607_a_at) / Fold change (ACY-1035/veh), C12orf56 (ProbeSet 11735607_a_at) / Fold change (Aza/veh), FGFR1OP (ProbeSet 11751329_s_at) / Fold change (ACY-1035/veh), FGFR1OP (ProbeSet 11751329_s_at) / Fold change (Aza/veh), VPS36 (ProbeSet 11739960_a_at) / Fold change (ACY-1035/veh), VPS36 (ProbeSet 11739960_a_at) / RFU SYPL1 (11715823_x_at) / Fold change /veh SYPL1 (11715823_x_at) / RFU IGFBP7 (11715501_s_at) / Fold change /veh IGFBP7 (11715501_s_at) / RFU REEP3 (11722064_at) / Fold change /veh REEP3 (11722064_at) / RFU IGLL1 (11728026_x_at) / Fold change /veh IGLL1 (11728026_x_at): dose or concentration left out as unconfirmed
Conditions: ProbeSet 11753616_s_at; LIST B

Nc1ncn([C@@H]2O[C@H](CO)[C@@H](O)[C@H]2O)c(=O)n1 [azacitidine]
RFU, ARL8B: 221.87 RFU
